Assay results: ChEMBL document CHEMBL1131275, “Synthesis and structure-activity relationships of CP-122,721, a second-generation NK-1 receptor antagonist” (Bioorg Med Chem Lett, 1998)

Legend:
Substance-P receptor = Substance-P receptor (Homo sapiens, UniProt P25103); assay: Antagonist activity for Tachykinin receptor 1 as displacement of [3H]-Substance P in human IM-9 cells; assay type: functional, cell-based
Cavia porcellus [1] = assay: Compound was tested for blockade of locomotor activity in guinea pig, elicited by icv administered Sar9Met(O2)-SP; assay type: functional; conditions: central, read-out: ID50 (the source's name)
Cavia porcellus [2] = organism: Cavia porcellus; assay: Inhibition of aerosolized capsaicin-induced plasma protein extravasation in guinea pig lung by peroral dose; assay type: functional; conditions: read-out: ID50 (the source's name)
Cavia porcellus [3] = organism: Cavia porcellus; assay: Compound tested for SP-induced plasma extravasation in guinea pig perorally; assay type: functional; conditions: po, read-out: ID50 (the source's name)
Cavia porcellus [4] = organism: Cavia porcellus; assay: Inhibition of capsaicin-induced plasma extravasation in guinea pig ureter by peroral dose; assay type: functional; conditions: po, read-out: ID50 (the source's name)
Cavia porcellus [5] = organism: Cavia porcellus; assay: Compound tested for blockade of cisplatin-induced emesis in guinea pig perorally; assay type: functional; conditions: po, read-out: ID50 (the source's name)
Cavia porcellus [6] = assay: Compound was tested for blockade of locomotor activity in the guinea pig elicited by icv administered Sar9Met(O2)-SP; assay type: functional; conditions: central, read-out: ID50 (the source's name)
Cavia porcellus [7] = organism: Cavia porcellus; assay: Inhibition of aerosolized capsaicin-induced plasma protein extravasation in guinea pig ureter by peroral dose; assay type: functional; conditions: read-out: ID50 (the source's name)

Chain of Substance-P receptor (P25103 whole entry): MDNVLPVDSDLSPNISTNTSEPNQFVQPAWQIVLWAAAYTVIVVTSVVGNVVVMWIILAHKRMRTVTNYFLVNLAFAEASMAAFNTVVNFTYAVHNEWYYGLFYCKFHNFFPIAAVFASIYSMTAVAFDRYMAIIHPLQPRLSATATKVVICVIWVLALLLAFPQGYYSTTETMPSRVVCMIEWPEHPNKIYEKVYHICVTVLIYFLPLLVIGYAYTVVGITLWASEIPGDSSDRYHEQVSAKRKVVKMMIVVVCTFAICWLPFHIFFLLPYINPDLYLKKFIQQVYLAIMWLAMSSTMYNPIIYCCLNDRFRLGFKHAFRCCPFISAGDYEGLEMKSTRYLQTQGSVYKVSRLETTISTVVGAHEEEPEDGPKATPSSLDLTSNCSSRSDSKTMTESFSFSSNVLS

For `FC(F)Oc1ccccc1CN[C@H]1CCCN[C@H]1c1ccccc1`, the IC50 (Substance-P receptor) was 0.41 nM.
In the case of `COc1ccc(OC(F)(F)F)cc1CN[C@H]1CCCN[C@H]1c1ccccc1`, the ED50 (Cavia porcellus [1]) is reported as 0.01 mg/kg, the ED50 (Cavia porcellus [2]) is reported as 0.01 mg/kg and the ED50 (Cavia porcellus [3]) is reported as 0.05 mg/kg. The ED50 (Cavia porcellus [4]) was 0.02 mg/kg and the ED50 (Cavia porcellus [5]) was 0.08 mg/kg.
`COc1ccc(N(C)S(C)(=O)=O)cc1CN[C@H]1CCCN[C@H]1c1ccccc1` showed an IC50 (Substance-P receptor) of 0.11 nM.
For `COc1ccccc1CN[C@H]1CCCN[C@H]1c1ccccc1` [CP-99994], the ED50 (Cavia porcellus [6]) was 0.6 mg/kg, the ED50 (Cavia porcellus [2]) was 5 mg/kg and the ED50 (Cavia porcellus [3]) was 31 mg/kg. The ED50 (Cavia porcellus [7]) was 2.9 mg/kg.
For `CC(C)Oc1ccc(OC(F)(F)F)cc1CN[C@H]1CCCN[C@H]1c1ccccc1`, the IC50 (Substance-P receptor) was 0.18 nM.
Work on `FC(F)(F)Oc1ccccc1CN[C@H]1CCCN[C@H]1c1ccccc1` yielded an IC50 (Substance-P receptor) of 0.8 nM.
For `Oc1ccc(OC(F)(F)F)cc1CN[C@H]1CCCN[C@H]1c1ccccc1`, the IC50 (Substance-P receptor) was 10.9 nM.
`COc1ccc(Cl)cc1CN[C@H]1CCCN[C@H]1c1ccccc1` showed an IC50 (Substance-P receptor) of 0.14 nM.
`CCOc1ccc(OC(F)(F)F)cc1CN[C@H]1CCCN[C@H]1c1ccccc1` showed an IC50 (Substance-P receptor) of 0.14 nM.
In the case of `CC(C)Oc1ccccc1CN[C@H]1CCCN[C@H]1c1ccccc1`, the IC50 (Substance-P receptor) is reported as 0.46 nM.
`COc1ccc(OC)c(CN[C@H]2CCCN[C@H]2c2ccccc2)c1` showed an IC50 (Substance-P receptor) of 0.09 nM.
`COc1ccc(N(C)C)cc1CN[C@H]1CCCN[C@H]1c1ccccc1` showed an IC50 (Substance-P receptor) of 0.56 nM.
